Patent US20230136600A1, “Method and device for screening antigen epitope polypeptide” (priority 2020, published 2023)

Assays:
[1] = test system: Balb/c mice; assay: Detection of peptide immunogenicity by polypeptide chip: vaccine peptide-specific signal sequencing (timing-sequence response, Fisher exact test); assay type: in vivo; settings: Embodiment IV; 7-peptide mixed solution with adjuvant: Mix 1 AddaVax, 2 Imject Alumn, 3 Alhydrogel, 4 Adju-Phos, 5 MA103A, 6 MA103B
[2] = test system: Balb/c mice; assay: Polypeptide chip-based vaccine immunogenicity scoring system; assay type: in vivo; parameters: key to A2: whether the 95 percentile of the last sampling is increased compared with the end point: Y = rise; N = no rise; settings: Embodiment III, polypeptide-KLH; for A1: difference between a highest median and a D 0 median (95 percentile) / A2: whether the 95 percentile of the last sampling is increased compared with the end point: Mix1-10; for Total single peptide: A*3 + B*2 + C*1; for A: 95 percentile grouping number score / B: Mouse performance score: total score = 5; for C1: #A timing-sequence response peptide fragment set / C2: #B vaccine specificity peptide fragment set / C3: Intersection of A and B / C4: Percentage of the intersection in set B / C: Timing-sequence response and specificity score: value of the whole mix

Row | Substance | #A timing-sequence response peptide fragment set [1] | #B vaccine specificity peptide fragment set [1] | Intersection of A and B [1] | Mode I [1] | Mode II [1] | B1: D 0-D 14 95 percentile rise in the number of mice [2] | B2: D 0-D 21 95 percentile rise in the number of mice [2] | B3: D 14-D 21 95 percentile rise in the number of mice [2] | B4: D 21-D 28 95 percentile rise in the number of mice [2] | A1: difference between a highest median and a D 0 median (95 percentile) [2] | A2: whether the 95 percentile of the last sampling is increased compared with the end point [2] | Total single peptide [2] | A: 95 percentile grouping number score [2] | B: Mouse performance score [2] | C1: #A timing-sequence response peptide fragment set [2] | C2: #B vaccine specificity peptide fragment set [2] | C3: Intersection of A and B [2] | C4: Percentage of the intersection in set B [2] | C: Timing-sequence response and specificity score [2]
1 | 1 (YTNDKACPL; SARS-CoV-2) [compound 1] | 237 | 1244 | 0 | 87 | 157 |  |  |  |  |  |  |  |  |  |  |  |  |  | 
2 | 2 (RGGSYTNDKAC; SARS-CoV-2) [compound 2] | 100 | 1244 | 3 | 74 | 31 |  |  |  |  |  |  |  |  |  |  |  |  |  | 
3 | 3 (SVYAWNRKR; SARS-CoV-2) [compound 3] | 123 | 1244 | 2 | 73 | 53 |  |  |  |  |  |  |  |  |  |  |  |  |  | 
4 | 4 (ALDPLSETKCT; SARS-CoV-2) [compound 4] | 203 | 1244 | 0 | 23 | 183 |  |  |  |  |  |  |  |  |  |  |  |  |  | 
5 | 5 (GRLQSLQTY; SARS-CoV-2) [compound 5] | 260 | 1244 | 3 | 102 | 171 |  |  |  |  |  |  |  |  |  |  |  |  |  | 
6 | YTNDKACPL (SARS-CoV-2) [SEQ ID NO:1] |  |  |  |  |  | 2 | 2 | 1 | 1 | 0.11 | Y | 18.3 | 5 | 1.4 | 257 | 682 | 3 | 0.440 | 0.5
7 | YYKKDNSYF (SARS-CoV-2) [SEQ ID NO:25] |  |  |  |  |  | 2 | 3 | 2 | 1 | 0.06 | N | 9.1 | 1.5 | 1.8 | 823 | 398 | 7 | 1.759 | 1
